Laboratory results as given in US20140100286A1, “COMPOSITION FOR PREVENTING OR TREATING INFLAMMATORY DISEASES COMPRISING VERATRIC ACID AS EFFECTIVE COMPONENT” (Pukyong National University Industry-University Cooperation …, priority 2012, published 2014).

Tests used:
Assay type in all cases: cell-based, murine
[1] = tested on: macrophage RAW264.7 cells; assay: Cytotoxicity of veratric acid, WST-1 cell viability; conditions: up to 200 μM, 3 h pretreatment then 100 ng/ml LPS 24 h
Description: Cell lines used to evaluate cytotoxicity of a veratric acid were macrophage RAW264.7, human embryonic kidney (HEK) 293, and human keratinocyte (HaCaT) cells. For a cytotoxicity experiment, the cell lines were first incubated in a culture solution of DMEM containing 10% fetal bovine serum (FBS) and 1% penicillin (100 U/ml)/streptomycin (100 U/ml) under a condition of 5% CO2 at a temperature of 37° C. Then, the incubated cells were seeded in a 96-well plate at 1×10^5 cells/well. Each of the cells was treated at different concentrations (0, 50, 100, 150 and 200 μM) of a veratric acid and incubated for 3 hours. After the incubation, the cells were stimulated with 100 ng/ml LPS contained in a culture medium for 24 hours. Thereafter, the culture solution was removed, and then, the cells were treated with a solution of WST-1® (Daeil Lab service, Korea) and further incubated for 3 hours. An optical density of the culture solution was measured at 460 nm by using an ELIZA analyzer to analyze cell viability.

[2] = tested on: nitric oxide production in macrophage RAW264.7 cells; assay: Nitric oxide (NO) production, Griess reagent; conditions: LPS 100 ng/ml in combination with veratric acid 50-200 μM, inhibition in proportion to concentration (FIG. 3B)
Description: In order to confirm whether or not the veratric acid has an activity of inhibiting production of nitric oxide that causes inflammation, the following experiment was performed. The prepared macrophage RAW264.7 cells were seeded in a 96-well plate at 1×10^5 cells/well. Each of the cells was treated at different concentrations (0, 50, 100, 150 and 200 μM) of the veratric acid and incubated for 3 hours. The cells were incubated in a culture medium containing 100 ng/ml LPS for 24 hours. Thereafter, a culture solution was acquired. After the culture solution was allowed to react with a Griess reagent, a production level of nitric oxide induced by the LPS was measured at 540 nm by using the ELIZA analyzer (BD PharMingen, USA).

[3] = tested on: inducible nitric oxide synthase (iNOS); assay: iNOS gene and protein expression, RT-PCR and Western blot; conditions: LPS-stimulated RAW264.7 cells, concentration dependent (FIG. 4)
Description: Thus, the present inventors performed an RT-PCR and a Western blot analysis as follows in order to confirm whether or not the veratric acid's mechanism of inhibiting nitric oxide production was operated by regulating expression and protein activity of iNOS as an inducible nitric oxide synthase involved in nitric oxide production.
The prepared murine macrophage RAW264.7 cells treated with the LPS in combination with the veratric acid were used. RNA was extracted and separated from the incubated cells by using 2-mercaptoethanol (Sigma, USA). An RT-PCR was performed by using primers listed in Table 1 with the extracted RNA as a template. Then, after electrophoresis, an expression level of a gene was checked with ultraviolet light.
The prepared murine macrophage cells treated with the LPS in combination with the veratric acid were collected and lysed by using a lysis buffer {50 mM Tris-Cl [pH7.5], 150 mM NaCl, 1 mM DTT, 0.5% NP-40, 1% Triton X-100, 1% deoxycholate, 0.1% SDS and a cocktail of proteinase inhibitors [1 mM PMSF, 1 mM EDTA, 11 μM aprotinin, 11 μM leupeptin, and 11 μM pepstatin A (Intron Biotechnology, Gyeonggi, Korea)]}. Protein samples were electrophoresed by 12% SDS-PAGE and then electrically transferred to a nitrocellulose membrane. Thereafter, the protein samples were allowed to react with primary antibodies capable of recognizing the iNOS. […]

cyclooxygenase-2 (COX-2) = assay: COX-2 gene and protein expression, RT-PCR and Western blot; conditions: LPS-stimulated RAW264.7 cells
IL-1β = IL-1β protein expression, Western blot; conditions: LPS-stimulated RAW264.7 cells, Western blot (FIG. 6)
IL-6 = IL-6 protein expression, Western blot; conditions: LPS-stimulated RAW264.7 cells, Western blot (FIG. 6)
TNF-α = TNF-α protein expression, Western blot; conditions: LPS-stimulated RAW264.7 cells, Western blot (FIG. 6)
IFN-γ = IFN-γ protein expression, Western blot; conditions: LPS-stimulated RAW264.7 cells, Western blot (FIG. 6)
STAT-1 = assay: Phosphorylation of STAT-1, Western blot; conditions: LPS-stimulated macrophage cells, concentration dependent (FIG. 7)
Description: (§1) The prepared murine macrophage cells treated with the LPS in combination with the veratric acid were collected and lysed by using a lysis buffer {50 mM Tris-Cl [pH7.5], 150 mM NaCl, 1 mM DTT, 0.5% NP-40, 1% Triton X-100, 1% deoxycholate, 0.1% SDS and a cocktail of proteinase inhibitors [1 mM PMSF, 1 mM EDTA, 11 μM aprotinin, 11 μM leupeptin, and 11 μM pepstatin A (Intron Biotechnology, Gyeonggi, Korea)]}. Protein samples were electrophoresed by 12% SDS-PAGE and then electrically transferred to a nitrocellulose membrane. Thereafter, the protein samples were allowed to react with primary antibodies capable of recognizing the iNOS. After the membrane was washed and then allowed to react with horseradish peroxidase-linked […] or […] (Cell Signaling Technology Inc., USA). Then, signals were checked by using an enhanced chemiluminescent (ECL) detection system (Pierce, USA).
It is known that secreted IFN-γ promotes phosphorylation of STAT-1 and induces transcription of iNOS, and an activity of the iNOS causes production of nitric oxide and induces inflammation. Therefore, protein expression levels of STAT-1 and phosphorylated STAT-1 were checked through a Western blot analysis performed in the same manner as Example 3 in order to confirm an effect of the veratric acid, which reduced the protein level of the IFN-γ in Example 5, on phosphorylation of STAT-1.

NF-κB [4] = assay: Phosphorylation of NF-κB, Western blot; conditions: LPS-stimulated macrophage cells, reduction in proportion to concentration (FIGS. 8A, 8B)
Description: as §1
(§2) An NF-κB is a transcription factor and when the NF-κB is activated by phosphorylated IκBα, it is moved into a nucleus and bound to a promoter site such that target molecules can be transcribed. Thus, the present inventors performed a Western blot analysis and an immunofluorescent microscopy as follows in order to confirm whether or not the veratric acid affected protein levels of the NF-κB and the IκBα. […]

IκBα = assay: Phosphorylation of IκBα, Western blot; conditions: LPS-stimulated macrophage cells, Western blot (FIGS. 8A, 8B)
Description: as §1, §2

NF-κB [5] = assay: Intracellular distribution of NF-κB, immunofluorescent microscopy; conditions: 100 μM veratric acid 1 hour, LPS 12 hours, immunofluorescent microscopy (FIGS. 8C, 8D)
Excerpt: An NF-κB is a transcription factor and when the NF-κB is activated by phosphorylated IκBα, it is moved into a nucleus and bound to a promoter site such that target molecules can be transcribed. Thus, the present inventors performed a Western blot analysis and an immunofluorescent microscopy as follows in order to confirm whether or not the veratric acid affected protein levels of the NF-κB and the IκBα. That is, protein expression levels of the NF-κB and the IκBα in the LPS-stimulated macrophage cells were checked through the Western blot analysis performed in the same manner as Example 3, and in the immunofluorescent microscopy, after 100 μM veratric acid was treated for 1 hour, LPS was incubated for 12 hours, and 4,6-diamidino-2-phenylindole (DAPI) was treated at room temperature for 15 minutes, the cells were immobilized with 4% formaldehyde and then distribution of the NF-κB in the cells was checked visually.

JNK = assay: Phosphorylation of JNK, Western blot; conditions: LPS-stimulated macrophage cells, Western blot (FIG. 9)
Description: as §1
(§3) Protein expression levels of JNK, p38, and ERK1/2 in the LPS-stimulated macrophage cells were checked through a Western blot analysis performed in the same manner as Example 3 in order to confirm whether or not the veratric acid affected an activity of MAPK as a superordinate signaling system that produced pro-inflammatory cytokines.

p38 = assay: Phosphorylation of p38, Western blot; conditions: LPS-stimulated macrophage cells, Western blot (FIG. 9); stronger effect than on JNK, ERK1/2
Description: as §1, §3

ERK1/2 = assay: Phosphorylation of ERK1/2, Western blot; conditions: LPS-stimulated macrophage cells, Western blot (FIG. 9)
Description: as §1, §3

GSK-3β = assay: Phosphorylation of GSK-3β, Western blot; conditions: LPS-stimulated macrophage cells, concentration dependent (FIG. 10)
Description: as §1
A protein expression level of GSK-3β in the LPS-stimulated macrophage cells was checked through a Western blot analysis performed in the same manner as Example 3 in order to confirm whether or not the veratric acid affected phosphorylation of the GSK-3β as a superordinate signaling system that caused inflammatory reactions.

c-Raf = assay: Phosphorylation of c-Raf at Ser259 and Ser338, Western blot; conditions: LPS-stimulated macrophage cells, Western blot (FIG. 11)
Description: as §1
If c-Raf (RAF proto-oncogene serine/threonine-protein kinase) is phosphorylated at Ser^338, the c-Raf induces expression of iNOS. Thus, the present inventors checked a protein level of the c-Raf in the LPS-stimulated macrophage cells and a phosphorylated protein level at Ser^259 and Ser^338 of the c-Raf through a Western blot analysis performed in the same manner as Example 3 in order to confirm whether or not the veratric acid affected the protein level of the c-Raf.

In the case of `COc1ccc(C(=O)O)cc1OC` [veratric acid, 3,4-Dimethoxybenzoic acid], the “cytotoxicity (cell viability)” value [1] is reported as “did not show cytotoxicity”, the “excessive production of nitric oxide” value [2] is reported as “inhibited” and the “gene expression of iNOS” value ([3]; RT-PCR) is reported as “decreased or inhibited strongly”. The “protein expression of iNOS” value ([3]; Western blot) was “decreased or inhibited strongly”, the “gene expression of COX-2” value (cyclooxygenase-2 (COX-2); RT-PCR (FIG. 5)) was “did not affect” and the “protein expression of COX-2” value (cyclooxygenase-2 (COX-2); Western blot (FIG. 5)) was “did not affect”. For the same compound, the “protein expression level of IL-1β” value (IL-1β) was “reduced”, the “protein expression level of IL-6” value (IL-6) was “did not affect” and the “protein expression level of TNF-α” value (TNF-α) was “did not affect”. For the same compound, the “protein expression level of IFN-γ” value (IFN-γ) was “reduced”, the “phosphorylation of the STAT-1” value (STAT-1) was “reduced” and the “protein expression of the phosphorylated NF-κB” value (NF-κB [4]) was “remarkably reduced”. The “phosphorylated IκBα” value (IκBα) was “reduced”, the “movement of the NF-κB into the nucleus” value (NF-κB [5]) was “inhibited” and the “phosphorylation of the JNK” value (JNK) was “inhibited”. For the same compound, the “phosphorylation of the p38” value (p38) was “inhibited”, the “phosphorylation of the ERK1/2” value (ERK1/2) was “inhibited” and the “phosphorylation of the GSK-3β” value (GSK-3β) was “remarkably inhibited”. For the same compound, the “phosphorylation at Ser259 of the c-Raf” value (c-Raf) was “did not affect” and the “phosphorylation at Ser338 of the c-Raf” value (c-Raf) was “inhibited”.
